From patent publication US20090238792A1, “SUPPRESSION OF POSTOPERATIVE ILEUS” (University of Pittsburgh of the Commonwealth System of …, priority 2007, published 2009)

How the values were obtained:
prostanoids = assay: Prostanoid release (ELISA) from organ cultured muscularis; format: in vivo, rat; details: manipulated rats, glycine 170 mg/kg or valine
Method: Age matched animals treated with vehicle (normal saline) or valine (263.5 mg/kg, osmotic control) at appropriate time points and at equal volumes served as controls. The rodent intestine was subjected to a standardized degree of surgical manipulation as described previously (14). Rats were anesthetized by isoflurane inhalation and the abdomen was opened by a midline laparotomy. The cecum was eventrated and laid out onto a moist gauze. Then, the intestine was inspected along its length and gently compressed using moist cotton applicators. The midline incision was closed by two layers of continuous sutures. All operative procedures were performed under sterile conditions with the intestine being handled only by instruments and never touched directly. Animals were killed at specific time points postoperatively by isoflurane anesthesia inhalation overdose and heart incision. The synthesis of prostanoids released into the tissue culture supernatant over a period of 24 hours was assayed by ELISA. After incubation the culture median and tissue was inspected, 500 μL aliquots of supernatant were frozen in liquid nitrogen and stored at −80° C. The muscle tissue was blotted dry and weighed. Culture supernatants were assayed for the measurement of prostaglandin secretion by enzyme immunoassay (Cayman Chemicals, Ann Arbor, Mich.). The ELISA was carried out in a 1:10 and 1:30 dilution. The assay was corrected for wet tissue weights and the prostaglandin ELISA kit sensitivity was 20 pg/ml.

[1] = test system: MPO positive leukocytes in the intestinal muscularis; assay: Myeloperoxidase (MPO) histochemistry: leukocyte infiltration in muscularis whole-mounts; format: in vivo, rat; details: for infiltrating MPO positive leukocytes: manipulated rats, 24 h postoperatively, SM vehicle 95±6.4
Method: (§1) Age matched animals treated with vehicle (normal saline) or valine (263.5 mg/kg, osmotic control) at appropriate time points and at equal volumes served as controls.
(§2) The rodent intestine was subjected to a standardized degree of surgical manipulation as described previously (14). Rats were anesthetized by isoflurane inhalation and the abdomen was opened by a midline laparotomy. The cecum was eventrated and laid out onto a moist gauze. Then, the intestine was inspected along its length and gently compressed using moist cotton applicators. The midline incision was closed by two layers of continuous sutures. All operative procedures were performed under sterile conditions with the intestine being handled only by instruments and never touched directly. Animals were killed at specific time points postoperatively by isoflurane anesthesia inhalation overdose and heart incision.
Histochemistry and Immunohistochemistry: Leukocyte infiltration was quantified on rat whole-mounts of the intestinal muscularis as described previously (N=6-8) (43). Myeloperoxidase (MPO) positive cells were detected using a mixture of 30 mg Hanker-Yates reagent, 30 ml KRB and […] 3% hydrogen peroxide for 10 minutes. Leukocytes were counted in 5 randomly chosen areas in each specimen (3 specimen per animal) at a magnification of 200×.
(§3) Methods: ACI-rats (180-220 g) underwent standardized surgical manipulation of the intestine. […] Age matched animals treated with vehicle or valine (osmotic control) at appropriate time points and at equal volumes served as controls. […] Postoperative mediator mRNA expression in the intestinal muscularis was determined by real-time RT PCR. Leukocyte extravasation was investigated in muscularis whole-mounts. Nitrite production was measured in muscularis cultures. In vivo transit of FITC-dextran was measured using geometric center analysis (GC). In vitro circular muscle contractility was assessed in a standard organ bath. Statistical analysis: unpaired Student t test, p<0.05, mean±SEM.

[2] = test system: rats with surgical manipulation of the intestine; assay: Rat in vivo gastrointestinal transit of fluorescein-labeled dextran (geometric center)
Method: as §1, §2, §3

[3] = test system: jejunal circular smooth muscle; assay: In vitro bethanechol stimulated contractile activity of jejunal circular muscle strips; format: in vivo, rat; details: for mean contractile force, bethanechol stimulated: manipulated rats, 100 mM bethanechol, control 3.2±0.2, SM vehicle 1.9±0.1
Method: as §1, §2
Mechanical in vitro activity of the rat mid-jejunum was evaluated at 24 hours postoperatively using smooth muscle strips of the circular muscularis as described previously (rats: N=5-11) (14). After dissection and a 30 minute equilibration period, the individual muscles were incrementally stretched to L0. Then after recording spontaneous contractility for 30 minutes, dose response curves were generated using increasing concentrations of the muscarinic agonist bethanechol ([…]) for 10 minutes and intervening wash periods (KRB) of 10 minutes. The contractile response was recorded and analyzed as g/mm2/sec over a 10 minute period.
as §3

[4] = Example 5, glycine (170 mg) i.v. 1 hour prior to surgery

NCC(=O)O [glycine]
prostanoid release, fold of control, colon (prostanoids; colonic muscularis 24 h organ culture, SM 3.1-fold): 0.7 fold
prostanoid release, fold of control, jejunum (prostanoids; jejunal muscularis 24 h organ culture, SM 5.9-fold): 0.9 fold
reduction of infiltrating leukocytes compared to manipulated vehicle pretreated rats ([1]; glycine 85 mg/kg): 18%
reduction of infiltrating leukocytes compared to manipulated vehicle pretreated rats ([1]; glycine 170 mg/kg): 27%
infiltrating MPO positive leukocytes ([1]; 85 mg/kg glycine): 78±5.1 cells/field at 200×
infiltrating MPO positive leukocytes ([1]; glycine 170 mg/kg or valine (263.5 mg/kg)): 69±5.7 cells/field at 200×
MPO positive cells ([1]; rats without intestinal manipulation, glycine injected, vehicle 2±0.9): 2±0.5 cells/field at 200× magnification
postoperative intestinal transit [2, 4]: ameliorated
geometric center (GC) of gastrointestinal transit ([2]; surgically manipulated rats, 24 h postoperatively, i.v. pretreatment 1 h before surgery, glycine 170 mg/kg, valine 263.5 mg/kg, SM vehicle GC=5.2±0.7): 8.5±0.7
amelioration of postoperative muscularis contractility [3, 4]: 54%
mean contractile force, bethanechol stimulated ([3]; 85 mg/kg glycine): 2.4±0.3 g/mm2/s
mean contractile force, bethanechol stimulated ([3]; 170 mg/kg glycine or valine pretreatment): 2.9±0.3 g/mm2/s
